Data taken from ChEMBL document CHEMBL5441451, “ASAP - In vitro cytotoxicity” (2024).
Several values for one entry are separate records, joined by “and”; a condition that tells them apart may be missing. Equal values may be shown once.

How the values were obtained:
[1] = (§1) Functional metabolic assay to measure dose dependent changes in cell viability from drug treatment in iPSC-Pneumocyte cells. The cells are seeded then incubated in MTT (3-[4,5-dimethylthiazol-2-yl]-2,5- diphenyltetrazolium bromide) labeling reagent and SDS. Absorbance is measured at 560 and 750 nm and analyzed by Gen5 software. The assay has been performed by Icahn School of Medicine at Mount Sinai.; format: toxicity, cell-based; conditions: human
[2] = as §1, with “in HeLa-ACE2” for “in iPSC-Pneumocyte”, “cells. Hela-ACE2” for “cells. The”, “seeded prior to drug treatment,” for “seeded”, “bromide) labelling” for “bromide) labeling”; format: toxicity, cell-based; conditions: human
[3] = Functional metabolic assay to measure dose dependent changes in cell viability from drug treatment in Vero E6/TMPRSS2 cells (cotreated with P-gp inhibitor, Elacridar). Cells are treated with antiviral candidates that have been serially diluted. Cytotoxicity is reported via measuring absorbance and analysis of MTT/MTS assays in uninfected cells. The assay has been performed by Icahn School of Medicine at Mount Sinai.; format: toxicity, cell-based, VeroE6/TMPRSS2; conditions: chlorocebus sabaeus
[4] = Vero E6/TMPRSS2 cells, with Elacridar (P-gp inhibitor), concentration not stated

SMILES	CC50 ([1]; iPSC-Pneumocyte cells) [µM]	CC10 ([1]; pneumocyte)	CC10 ([2]; hela-ace2)	CC50 ([2]; HeLa-ACE2 cells) [µM]	other results
CC(C)[C@@H](Nc1ncnc2[nH]ccc12)c1ccc2c(c1)S(=O)(=O)CCC2	> 50	> 50 µM	> 50 µM and > 20 µM		CC50 ([2]; hela-ace2): > 50 µM
CC(C)[C@@H](Nc1ncnc2[nH]c(C(=O)N[C@H]3CCN(C)C3)cc12)c1ccc2c(c1)S(=O)(=O)CCC2	> 50	> 50 µM	> 20 µM	> 20	
CCNC(=O)c1cc2c(N[C@@H](c3ccc4c(c3)S(=O)(=O)CCO4)C(C)C)ncnc2[nH]1			> 20 µM	> 20	
Cc1nn(C)cc1-c1cc2c(N[C@@H](c3ccc4c(c3)S(=O)(=O)CCC4)C(C)C)ncnc2[nH]1			> 20 µM	> 20	
CCNC(=O)c1cc2c(N[C@@H](c3ccc4c(c3)S(=O)(=O)CCC4)C(C)C)ncnc2[nH]1			> 20 µM	> 20	
Cn1ncc(-c2cc3c(N[C@@H](c4ccc5c(n4)OCCO5)C(C)(C)C)ncnc3[nH]2)c1C#N			> 10 µM and > 20 µM	> 10	CC50 ([2]; hela-ace2): > 20 µM
CNC(=O)c1cc2c(N[C@@H](c3ccc4c(c3)OCCO4)C(C)C)ncnc2[nH]1	> 50	> 50 µM	> 50 µM	> 50	
CNC(=O)c1cccc(-c2cc3c(N[C@@H](c4ccc5c(c4)S(=O)(=O)CCC5)C(C)C)ncnc3[nH]2)c1			> 20 µM	> 20	
CC(C)[C@H](Nc1ncnc2[nH]c(-c3cnn(CC(N)=O)c3)cc12)c1ccc2c(c1)S(=O)(=O)CCC2	> 50	> 50 µM	> 20 µM	> 20	
Cc1nn(C)cc1-c1cc2c(N[C@H](c3ccc4c(c3)S(=O)(=O)CCC4)C(C)C)ncnc2[nH]1			> 20 µM	> 20	CC50 [3, 4]: > 5 µM; CC10 ([3]; veroe6/tmprss2): > 5 µM
CC(C)[C@@H](Nc1ncnc2[nH]c(C(=O)N[C@@H]3CCN(C)C3)cc12)c1ccc2c(c1)S(=O)(=O)CCC2	< 0.206	< 0.206 µM	> 20 µM	> 20	CC50 [3, 4]: > 5 µM; CC10 ([3]; veroe6/tmprss2): > 5 µM
CC(C)[C@@H](Nc1ncnc2[nH]c(-c3cnn(C)c3)cc12)c1ccc2c(c1)S(=O)(=O)NCC2			> 20 µM	> 20	
COc1ccc([C@H](Cc2nnn[nH]2)NC(=O)c2ncnc3[nH]ccc23)cc1			> 20 µM	> 20	CC50 [3, 4]: > 5 µM; CC10 ([3]; veroe6/tmprss2): > 5 µM
CCNC(=O)c1cc2c(N[C@@H](c3ccc4c(c3)OCCO4)C(C)C)ncnc2[nH]1	< 0.206	1.29 µM			
CC(C)[C@H](Nc1ncnc2[nH]c(-c3cnn(C)c3C#N)cc12)c1ccc2c(c1)S(=O)(=O)CCC2			> 20 µM	> 20	
CNCc1cc(-c2cc3c(N[C@@H](c4ccc5c(c4)S(=O)(=O)CCC5)C(C)C)ncnc3[nH]2)co1	> 50	> 50 µM	> 20 µM	> 20	CC50 [3, 4]: > 5 µM; CC10 ([3]; veroe6/tmprss2): > 5 µM
CC(C)(C)[C@H](Nc1ncnc2[nH]c(-c3cnn(CC(N)=O)c3)cc12)c1ccc2c(c1)OCCO2			> 20 µM	> 20	
CNCc1cc(-c2cc3c(N[C@H](c4ccc5c(c4)S(=O)(=O)CCC5)C(C)C)ncnc3[nH]2)co1			> 20 µM	> 20	
CC(C)[C@H](Nc1ncnc2[nH]c(-c3cnn(C)c3C#N)cc12)c1ccc2c(n1)NC(=O)CO2			> 20 µM	> 20	
CNCc1cc(-c2cc3c(N[C@@H](c4ccc5c(c4)S(=O)(=O)NCC5)C(C)C)ncnc3[nH]2)co1	> 50	> 50 µM	> 20 µM	> 20	
CC(C)[C@@H](Nc1ncnc2[nH]ccc12)c1ccc2c(c1)S(=O)(=O)CCO2			> 20 µM	> 20	
CC(C)[C@@H](Nc1ncnc2[nH]ccc12)c1ccc2c(c1)NC(=O)CO2	> 50	> 50 µM	> 50 µM	> 50	
C[C@H](C(=O)O)[C@@H](NC(=O)c1ncnc2[nH]ccc12)c1ccc(Br)cc1			> 20 µM	> 20	CC50 [3, 4]: > 5 µM; CC10 ([3]; veroe6/tmprss2): > 5 µM
COc1ccc([C@@H](Cc2nnn[nH]2)NC(=O)c2ncnc3[nH]ccc23)cc1			> 20 µM	> 20	
CC(C)[C@H](Nc1ncnc2[nH]c(-c3cnn(C)c3C#N)cc12)c1ccc2c(c1)NC(=O)CO2			> 20 µM	> 20	
CCNC(=O)c1cc2c(N[C@@H](c3ccc4c(c3)S(=O)(=O)NCC4)C(C)C)ncnc2[nH]1			> 20 µM	> 20	
CC(C)[C@H](Nc1ncnc2[nH]c(-c3cnn(C)c3)cc12)c1ccc2c(c1)S(=O)(=O)CCC2			> 20 µM	> 20	

SMILES	CC50 ([1]; iPSC-Pneumocyte cells) [µM]	CC10 ([1]; pneumocyte)	CC10 ([2]; hela-ace2)	CC50 ([2]; HeLa-ACE2 cells) [µM]	other results
CNC(=O)Cn1cc(-c2cc3c(N[C@@H](c4ccc5c(c4)S(=O)(=O)CCC5)C(C)C)ncnc3[nH]2)cn1	1.7	1.528 µM	> 20 µM	> 20	CC50 [3, 4]: > 5 µM; CC10 ([3]; veroe6/tmprss2): > 5 µM
CC(C)[C@H](Nc1ncnc2[nH]c(-c3cnn(C)c3C#N)cc12)c1ccc2c(n1)OCCO2			> 20 µM and > 50 µM	> 20	CC50 [3, 4]: > 5 µM; CC10 ([3]; veroe6/tmprss2): > 5 µM; CC50 ([2]; hela-ace2): 12.5 µM
CC(C)[C@@H](Nc1ncnc2[nH]c(-c3cnn(C)c3C#N)cc12)c1ccc2c(c1)OCCO2		24.479 µM and > 50 µM	> 50 µM	> 50	CC50 ([1]; pneumocyte): 18.1 µM and > 50 µM
CC(C)[C@H](Nc1ncnc2[nH]ccc12)c1ccc2c(c1)S(=O)(=O)CCC2			> 20 µM	> 20	CC50 ([3]; veroe6/tmprss2): > 20 µM
CC(C)[C@@H](Nc1ncnc2[nH]cc(C(=O)NC3CC3)c12)c1ccc2c(c1)S(=O)(=O)CCC2			> 20 µM	> 20	
CC(C)[C@@H](Nc1ncnc2[nH]c(-c3ccc4nnn(C)c4c3)cc12)c1ccc2c(c1)S(=O)(=O)CCC2			> 20 µM	> 20	
CC(C)[C@@H](Nc1ncnc2[nH]c(-c3cnn(C)c3)cc12)c1ccc2c(c1)S(=O)(=O)CCC2	> 50	> 50 µM	> 20 µM	> 20	
Cc1ncc(-c2cc3c(N[C@@H](c4ccc5c(c4)OCCO5)C(C)C)ncnc3[nH]2)cn1	> 50	> 50 µM	> 20 µM	> 20	
CC(C)[C@@H](Nc1ncnc2[nH]c(-c3cnn(CC(N)=O)c3)cc12)c1ccc2c(n1)OCCO2	> 50	> 50 µM			
CNC(=O)Cn1cc(-c2cc3c(N[C@H](c4ccc5c(c4)S(=O)(=O)CCC5)C(C)C)ncnc3[nH]2)cn1	> 50	> 50 µM	> 20 µM	> 20	
CC(C)[C@@H](Nc1ncnc2[nH]c(-c3ccc4cncn4c3)cc12)c1ccc2c(c1)S(=O)(=O)CCC2			> 20 µM	> 20	
CC(C)[C@@H](Nc1ncnc2[nH]c(-c3cncc(S(C)(=O)=O)c3)cc12)c1ccc2c(c1)S(=O)(=O)CCC2			> 20 µM	> 20	
CC(C)(C)[C@@H](Nc1ncnc2[nH]c(-c3cnn(CC(N)=O)c3)cc12)c1ccc2c(n1)OCCO2	> 50	> 50 µM	> 20 µM	> 20	
CC(C)[C@@H](Nc1ncnc2[nH]c(C(N)=O)cc12)c1ccc2c(c1)OCCO2	> 50	> 50 µM	< 0.082 µM	< 0.082	
CC(C)[C@@H](Nc1ncnc2[nH]c(-c3cnn(CC(N)=O)c3)cc12)c1ccc2c(c1)S(=O)(=O)CCC2			> 20 µM	> 20	
CNC(=O)c1cc2c(N[C@@H](c3ccc4c(c3)S(=O)(=O)CCC4)C(C)C)ncnc2[nH]1			> 20 µM	> 20	
CNC(=O)c1cccc(-c2cc3c(N[C@H](c4ccc5c(c4)S(=O)(=O)CCC5)C(C)C)ncnc3[nH]2)c1			> 20 µM	> 20	
CC(C)[C@@H](Nc1ncnc2[nH]c(-c3cnn(CC(=O)N(C)C)c3)cc12)c1ccc2c(c1)OCCO2			> 20 µM	> 20	
CC(C)[C@@H](Nc1ncnc2[nH]c(-c3cnn(CC(=O)N(C)C)c3)cc12)c1ccc2c(c1)S(=O)(=O)CCC2			> 20 µM	> 20	
CC(C)[C@@H](Nc1ncnc2[nH]c(-c3cnn(C)c3C#N)cc12)c1ccc2c(n1)NC(=O)CO2			> 20 µM	> 20	
CC(C)[C@@H](Nc1ncnc2[nH]c(-c3cnn(C)c3C#N)cc12)c1ccc2c(c1)S(=O)(=O)CCC2	> 50	> 50 µM	> 20 µM	> 20	
Cn1ncc(-c2cc3c(N[C@@H](c4ccc5c(c4)OCCO5)C(C)(C)C)ncnc3[nH]2)c1C#N	48.6	> 50 µM	> 20 µM	> 20	
C[C@@H](C(=O)O)[C@H](NC(=O)c1ncnc2[nH]ccc12)c1ccc(Br)cc1			> 20 µM	> 20	
CCNC(=O)c1cc2c(N[C@H](c3ccc4c(c3)OCCO4)C(C)C)ncnc2[nH]1			> 20 µM	> 20	
CC(C)[C@@H](Nc1ncnc2[nH]c(-c3cnn(C)n3)cc12)c1ccc2c(c1)OCCO2	< 0.206	< 0.206 µM	> 20 µM	> 20	
CC(C)[C@@H](Nc1ncnc2[nH]c(-c3cnn(CC(N)=O)c3)cc12)c1ccc2c(c1)OCCO2	> 50	> 50 µM	> 50 µM	> 50	
